Here are results for 11 molecules from patent US6187755A, “Benzylmaltosides as inhibitors of smooth muscle cell proliferation” (American Home Products Corporation, priority 1999, dated 2001).

Test [1] deals with Porcine Smooth Muscle Cell. Nature of the test: Porcine smooth muscle cell antiproliferation, 3H thymidine incorporation. Format: cell-based. The settings on record: Sus scrofa, growth factor or serum stimulated, 24-36 h at 37° C., compound added with 3H thymidine and serum / growth factor. On the procedure: Effects of Compounds on Cell Proliferation Using ^3 H Thymidine Incorporation
Human and porcine smooth muscle cells were tested in early passage (generally passage 3-7) at sub-confluent conditions. Cultures were grown in 16 mm (24 well) multi-well culture dishes in medium 199 supplemented with 10% fetal bovine serum and 2% antibiotic / antimycotic. At sub-confluence, the cells were placed in a defined serum free medium (AIM-V; Gibco) for 24-48 h prior to initiating the experimental protocol.
Compounds were added to each well at 50 fold dilution (20 AL / well) and the plates were incubated for 24-36 h at 37° C. in 5% CO2. Compounds were initially dissolved in 50% ethanol and serially diluted into media. Compounds were routinely evaluated at concentrations from 1 to 100 μM. As a control, grade II porcine intestinal mucosal heparin (sodium salt) was routinely evaluated in all cell preparations at concentrations from 0.1 to 100 μg/mL.
At the completion of the test procedure, plates were placed on ice, washed three times with ice cold phosphate buffered saline (PBS) and incubated in ice cold 10% trichloroacetic acid (TCA) got 30 min to remove acid soluble proteins. Solution was transferred to scintillation vials containing 0.4 N HCl (500 μL/ vial to neutralize NaOH) and each well was rinsed two times with water (500 μL) for a total volume of 2 mL / vial.
Data was obtained, in triplicate, for both control and experimental samples. Control (100%) data was obtained from maximally stimulated cells, as the result of growth factor or serum stimulation. Experimental data was obtained from cells maximally stimulated with growth factor or serum and treated with compound. Data are expressed as an IC50 in Table I below.

The next test has as its system endothelial cell. The settings on record: literature (Castellot 1987); cited from earlier work.
For a further test, the system named is smooth muscle cell (SMC). The settings on record: literature; cited from earlier work.
The conditions of test [2]: literature (Reilly 1993); cited from earlier work.

Take `CC(=O)Nc1cc(CO[C@@H]2O[C@H](Cn3cnc([N+](=O)[O-])c3)[C@@H](O[C@H]3O[C@@H]4COC(c5ccccc5)O[C@H]4[C@H](O)[C@H]3O)[C@H](O)[C@H]2O)ccc1C` (stereo partly drawn) [Example 1, N-(5-{[4',6'-O-Benzylidene-6-deoxy-6-(4-nitro-1H-imidazol-1-yl)-β-D-maltosyl-oxy]-methyl}-2-methyl-phenyl)-acetamide]: it took 11 µM to reach half-maximal inhibition in test [1] (IC50).
As to `CC(=O)Nc1cc(CO[C@@H]2O[C@H](Cn3cnc([N+](=O)[O-])c3)[C@@H](O[C@H]3O[C@@H]4COC(c5ccccc5)O[C@H]4[C@H](OC(C)=O)[C@H]3OC(C)=O)[C@H](OC(C)=O)[C@H]2OC(C)=O)ccc1Cl` (stereo partly drawn) [Example 2, N-(5-{[2,3,2',3'-Tetra-O-acetyl-4',6'-O-benzylidene-6-deoxy-6-(4-nitro-1 H-imidazol-1-yl)-β-D-maltosyl]-oxy-methyl}-2-chloro-phenyl)-acetamide], in test [1], the IC50 was 0.807 µM.
Still for that read-out and setting: with `CC(=O)Nc1cc(CO[C@@H]2O[C@H](Cn3cnc([N+](=O)[O-])c3)[C@@H](O[C@H]3O[C@@H]4COC(c5ccccc5)O[C@H]4[C@H](O)[C@H]3O)[C@H](O)[C@H]2O)ccc1Cl` (stereo partly drawn) [Example 3, N-(5-{[4',6'-O-Benzylidene-6-deoxy-6-(4-nitro-1H-imidazol-1-yl)-β-D-maltosyl]-oxy-methyl}-2-chloro-phenyl)-acetamide] the figure was 1.85 µM.
Still for that read-out and setting: as for `CC(=O)Nc1cc(CO[C@@H]2O[C@H](CI)[C@@H](O[C@H]3O[C@@H]4COC(c5ccccc5)O[C@H]4[C@H](OC(C)=O)[C@H]3OC(C)=O)[C@H](OC(C)=O)[C@H]2OC(C)=O)ccc1Cl` (stereo partly drawn) [Example 4, N-{5-[(2,2',3,3'-Tetra-O-acetyl-4',6',-O-benzylidene-6-deoxy-6-iodo-β-D-maltosyl)-oxy-methyl]-2-chloro-phenyl}-acetamide], the figure is 0.2 µM; as for `CC(=O)Nc1cc(CO[C@@H]2O[C@H](CI)[C@@H](O[C@H]3O[C@@H]4COC(c5ccccc5)O[C@H]4[C@H](O)[C@H]3O)[C@H](O)[C@H]2O)ccc1Cl` (stereo partly drawn) [Example 5, N-{5-[(4',6',-O-Benzylidene-6-deoxy-6-iodo-β-D-maltosyl)-oxy-methyl]-2-chloro-phenyl}-acetamide], 1.16 µM; as for `CC(=O)Nc1cc(CO[C@@H]2O[C@H](CN3C(=O)c4ccccc4C3=O)[C@@H](O[C@H]3O[C@@H]4COC(c5ccccc5)O[C@H]4[C@H](OC(C)=O)[C@H]3OC(C)=O)[C@H](OC(C)=O)[C@H]2OC(C)=O)ccc1Cl` (stereo partly drawn) [Example 6, N-(5-{[2,2',3,3'-Tetra-O-acetyl-4',6'-O-benzylidene-6-deoxy-6-(1,3-dioxo-1,3-dihydro-isoindol-2-yl)-β-D-maltosyl]-oxy-methyl}2-chloro-phenyl)-acetamide], 0.84 µM.
On the same count and under the same terms, with `CC(=O)Nc1cc(CO[C@@H]2O[C@H](CN3C(=O)c4ccccc4C3=O)[C@@H](O[C@H]3O[C@@H]4COC(c5ccccc5)O[C@H]4[C@H](O)[C@H]3O)[C@H](O)[C@H]2O)ccc1Cl` (stereo partly drawn) [Example 7, N-(5-{[4',6'-O-Benzylidene-6-deoxy-6-(1,3-dioxo-1,3-dihydro-isoindol-2-yl)-β-D-maltosyl]-oxy-methyl}-2-chloro-phenyl)-acetamide] the figure was 1.59 µM; with `CC(=O)Nc1cc(CO[C@@H]2O[C@H](CN=[N+]=[N-])[C@@H](O[C@H]3O[C@@H]4COC(c5ccccc5)O[C@H]4[C@H](O)[C@H]3O)[C@H](O)[C@H]2O)ccc1Cl` (stereo partly drawn) [Example 8, N-{5-[(6-Deoxy-6-azido-4',6'-O-benzylidene-β-D-maltosyl)-oxy-methyl]-2-chloro-phenyl}-acetamide], 0.614 µM.
Regarding heparan sulfate, the endothelial cell growth result in the test with endothelial cell was “able to promote endothelial cell growth”. Also, in the test on smooth muscle cell (SMC), the “inhibition of SMC proliferation” value is listed as “endogenous inhibitors of SMC proliferation”.
Take heparin: in the test on endothelial cell, the endothelial cell growth result is “able to promote endothelial cell growth”. The “inhibition of SMC proliferation” value in the test with smooth muscle cell (SMC) is reported as “endogenous inhibitors of SMC proliferation”.
Take β-cyclodextrin tetradecasulfate: the inhibition of restenosis result in test [2] is recorded as “effective inhibitor of restenosis”. For the same molecule, the “inhibition of SMC proliferation” value in the test with smooth muscle cell (SMC) is listed as “smooth muscle cell proliferation inhibitor”.
